Experiments:
[1] = tested on: Akt; experiment: Immunoblot of phospho-AKT in lapatinib-treated cells; type: cell-based; conditions: sensitive and resistant cells, 1 μM lapatinib, 50 μM z-VAD
[2] = tested on: Mcl-1; experiment: Immunoblot of Mcl-1 protein levels; type: cell-based; conditions: 1 μM lapatinib
Method: FIG. 3 is a set of photographs showing that Mcl-1 is stabilized in lapatinib-resistant cells. […] FIG. 3B is a set of immunoblots showing the levels of HER2 and phospho-HER2 in untreated cells and cells treated with lapatinib. Cells were treated with or without lapatinib (1 μM) for 24 hours in the presence of the caspase inhibitor z-VAD (50 μM). The cells were harvested and cell lysates were immunoblotted using antibodies against phospho-HER2 (Y877) and total HER2. FIG. 3C is an immunoblot for phospho-AKT (T308) and total AKT. BT474 and rBT474 cells were treated with 1 μM lapatinib in the presence of 50 μM z-VAD. At the indicated time points, the cells were harvested and immunoblotted. FIG. 3D is an immunoblot for phospho-Erl1/2(T202/Y204) and total Erk1/2. BT474 and rBT474 cells were treated with 1 μM lapatinib in the presence of 50 μM z-VAD. At the indicated time points, the cells were harvested and immunoblotted. FIG. 3E is an immunoblot for Mcl-1, Bim, and Actin. BT474 and rBT474 cells (left) or SKBR3 and rSKBR3 cells (right) were treated with 1 μM lapatinib. The cells were harvested at the indicated time points and immunoblotted. FIG. 3F is an autoradiograph showing the ^35[S] radioactivity in lysates containing ^35[S]-Mcl-1 at the indicated time points. ^35[S]-labeled Mcl-1 protein was incubated in cell-free lysates prepared from BT474 and rBT474 cells (top) or SKBR3 and rSKBR3 cells (bottom). FIG. 3G is an autograph showing the ^35[S]-labeled Mcl-1 to monitor Mcl-1 stability over time. The ^35[S]-labeled Mcl-1 was incubated in lysates prepared from rBT474 cells treated with or without 1 μM lapatinib. FIG. 3H is an immunoblot for HA. SKBR3 or rSKBR3 cells were co-transfected with FLAG-Mcl-1 and HA-Ubiquitin (Ub). […] Cells were harvested after treatment with 10 μM MG 132 for 4 hours. FLAG-Mcl-1 was retrieved by immunoprecipitation using anti-flag agarose, and Mcl-1 ubiquitylation was analyzed by immunoblotting for HA (*non-specific band, **IgG heavy chain).

[3] = target: HER2 (Homo sapiens, UniProt P04626); experiment: Immunoblot of phospho-HER2 in lapatinib-treated cells; type: cell-based; conditions: 1 μM lapatinib, 24 hours, z-VAD 50 μM; even in resistant cells
[4] = tested on: MDM2; experiment: Immunoblot of MDM2 protein levels; type: cell-based; conditions: 1 μM lapatinib
[5] = tested on: HSP90β; experiment: HSP90β phosphorylation (Ser226, Ser255); type: cell-based
[6] = tested on: AU565-derived tumor; experiment: AU565 mammary fat pad xenograft; type: in vivo, mouse; conditions: 100 mg/kg each drug, twice daily by oral gavage
[7] = tested on: rBT474, rSKBR3, rAU565 and rSUM190 cells; experiment: Apoptotic cell death (Annexin V FACS) in lapatinib-resistant lines; type: cell-based; conditions: all four resistant lines
Method: FIG. 2 is a set of graphs showing the percentage of cells undergoing apoptotic cell death for each of the four cell lines and their matched resistant cell line in the presence or absence of lapatinib and/or an MDM2 inhibitor, MI-219, as measured by FACS analysis for Annexin V. Results are expressed as mean +/− SEM of Annexin V positive cells.
BT474, SKBR3, and AU565 cells were obtained from ATCC. SUM190 cells were obtained from Asterand, Inc. All cell lines were cultured in RPMI medium containing 10% fetal bovine serum (FBS). Lapatinib-resistant cells (rBT474, rSKBR3, rAU565, and rSUM190) were established as previously described^14. Cobleigh, et al. J. Clin. Oncol. 17, 2639-2648 (1999). Lapatinib-resistant cells were grown in the presence of 1 μM lapatinib unless otherwise stated.

[8] = tested on: mitochondrial cytochrome c release; experiment: Western blot for cytochrome c in cytosolic lysates lacking mitochondria; conditions: 1 μM lapatinib, 24 hours
[9] = tested on: BT474 xenografts; experiment: BT474 mammary fat pad xenograft; conditions: 100 mg/kg each drug, twice daily by oral gavage
[10] = tested on: Mcl-1; experiment: Mcl-1 ubiquitylation (FLAG-Mcl-1 / HA-Ub immunoprecipitation); type: cell-based; conditions: 1 μM lapatinib, 24 hours
Method: FIG. 3 is a set of photographs showing that Mcl-1 is stabilized in lapatinib-resistant cells. […] FIG. 3B is a set of immunoblots showing the levels of HER2 and phospho-HER2 in untreated cells and cells treated with lapatinib. Cells were treated with or without lapatinib (1 μM) for 24 hours in the presence of the caspase inhibitor z-VAD (50 μM). The cells were harvested and cell lysates were immunoblotted using antibodies against phospho-HER2 (Y877) and total HER2. FIG. 3C is an immunoblot for phospho-AKT (T308) and total AKT. BT474 and rBT474 cells were treated with 1 μM lapatinib in the presence of 50 μM z-VAD. At the indicated time points, the cells were harvested and immunoblotted. FIG. 3D is an immunoblot for phospho-Erl1/2(T202/Y204) and total Erk1/2. BT474 and rBT474 cells were treated with 1 μM lapatinib in the presence of 50 μM z-VAD. At the indicated time points, the cells were harvested and immunoblotted. […] FIG. 3F is an autoradiograph showing the ^35[S] radioactivity in lysates containing ^35[S]-Mcl-1 at the indicated time points. ^35[S]-labeled Mcl-1 protein was incubated in cell-free lysates prepared from BT474 and rBT474 cells (top) or SKBR3 and rSKBR3 cells (bottom). […] FLAG-Mcl-1 was retrieved by immunoprecipitation using anti-flag agarose, and Mcl-1 ubiquitylation was analyzed by immunoblotting for HA (*non-specific band, **IgG heavy chain). […]

[11] = tested on: CAS mRNA; experiment: Quantitative real-time PCR of CAS mRNA; type: cell-based; conditions: sensitive or resistant cells
[12] = target: T1, CAS-MDM2 interaction (Homo sapiens, UniProt Q00987); experiment: CAS-MDM2 co-immunoprecipitation; type: cell-based; conditions: 1 μM lapatinib, 24 hours
T1 construct: association of endogenous MDM2 was analyzed by immunoblotting; expressed in transfected cells; host or cells: BT474 and rBT474 cells transfected with FLAG-CAS; MDM2 endogenous
T1 sequence (Q00987 whole entry): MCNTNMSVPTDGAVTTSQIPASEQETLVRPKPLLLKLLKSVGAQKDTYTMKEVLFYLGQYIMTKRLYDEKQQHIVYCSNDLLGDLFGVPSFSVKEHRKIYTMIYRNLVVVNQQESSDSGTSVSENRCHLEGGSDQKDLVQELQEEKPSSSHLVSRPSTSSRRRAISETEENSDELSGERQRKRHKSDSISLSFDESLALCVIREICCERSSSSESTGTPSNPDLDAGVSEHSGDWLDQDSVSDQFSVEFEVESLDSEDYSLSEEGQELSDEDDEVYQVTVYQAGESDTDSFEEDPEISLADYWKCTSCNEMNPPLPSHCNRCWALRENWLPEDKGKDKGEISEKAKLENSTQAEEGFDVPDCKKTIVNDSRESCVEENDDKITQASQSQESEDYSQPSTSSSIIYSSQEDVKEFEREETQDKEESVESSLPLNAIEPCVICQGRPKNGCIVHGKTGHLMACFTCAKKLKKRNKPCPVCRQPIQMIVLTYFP

Sequence of HER2 (P04626 23-1255): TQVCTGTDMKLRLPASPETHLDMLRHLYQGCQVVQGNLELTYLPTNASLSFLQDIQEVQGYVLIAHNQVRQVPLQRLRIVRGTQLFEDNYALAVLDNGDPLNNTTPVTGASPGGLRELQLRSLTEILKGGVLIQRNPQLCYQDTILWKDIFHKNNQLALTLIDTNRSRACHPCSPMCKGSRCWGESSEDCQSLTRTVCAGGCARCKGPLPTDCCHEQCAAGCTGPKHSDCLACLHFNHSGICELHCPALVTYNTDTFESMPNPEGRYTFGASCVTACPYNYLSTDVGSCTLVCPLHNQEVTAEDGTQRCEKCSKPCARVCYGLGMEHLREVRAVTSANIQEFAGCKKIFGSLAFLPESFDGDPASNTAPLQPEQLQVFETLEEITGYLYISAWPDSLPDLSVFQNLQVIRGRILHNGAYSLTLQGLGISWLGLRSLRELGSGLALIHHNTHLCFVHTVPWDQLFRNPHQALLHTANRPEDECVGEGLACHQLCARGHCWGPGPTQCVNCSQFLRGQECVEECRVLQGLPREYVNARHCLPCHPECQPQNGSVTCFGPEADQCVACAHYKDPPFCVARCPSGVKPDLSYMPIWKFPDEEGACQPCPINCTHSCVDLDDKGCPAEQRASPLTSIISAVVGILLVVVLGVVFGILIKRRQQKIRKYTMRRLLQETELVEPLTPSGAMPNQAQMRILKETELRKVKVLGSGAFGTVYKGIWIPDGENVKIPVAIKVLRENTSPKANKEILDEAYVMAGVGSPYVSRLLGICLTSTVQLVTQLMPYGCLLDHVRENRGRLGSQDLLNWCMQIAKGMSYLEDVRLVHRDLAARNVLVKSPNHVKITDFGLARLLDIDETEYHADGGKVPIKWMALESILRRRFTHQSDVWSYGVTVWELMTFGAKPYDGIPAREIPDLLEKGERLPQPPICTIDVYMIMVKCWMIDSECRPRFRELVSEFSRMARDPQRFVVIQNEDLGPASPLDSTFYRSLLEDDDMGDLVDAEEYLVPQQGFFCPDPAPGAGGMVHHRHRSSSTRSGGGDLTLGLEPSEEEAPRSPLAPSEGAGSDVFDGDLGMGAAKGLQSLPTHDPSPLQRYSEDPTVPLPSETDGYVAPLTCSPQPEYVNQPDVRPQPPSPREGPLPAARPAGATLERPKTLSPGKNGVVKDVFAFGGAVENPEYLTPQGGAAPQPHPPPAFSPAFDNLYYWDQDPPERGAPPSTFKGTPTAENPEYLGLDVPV

HER2 tyrosine autophosphorylation [3]: inhibited
CAS-MDM2 interaction ([12]; BT474 cells): decreased
CAS-MDM2 interaction ([12]; rBT474 cells): enhanced
SMILES: CS(=O)(=O)CCNCc1ccc(-c2ccc3ncnc(Nc4ccc(OCc5cccc(F)c5)c(Cl)c4)c3c2)o1 [lapatinib]
phosphorylation of Akt [1]: attenuated
Mcl-1 protein levels ([2]; resistant cells): increased
Mcl-1 protein levels ([2]; sensitive cells): decreased
MDM2 levels ([4]; parental cells): rapidly decreased
MDM2 levels ([4]; resistant cells): maintained
HSP90β phosphorylation at both Ser226 and Ser255 ([5]; lapatinib-treated resistant cells compared to sensitive cells): markedly decreased
HSP90β phosphorylation ([5]; normal BT474 cells, 1 μM lapatinib): did not prevent
AU565-derived tumor growth [6]: substantially inhibited
cell death in response to lapatinib treatment [7]: did not die
mitochondrial cytochrome c release ([8]; parental BT474 cells): induced mitochondrial cytochrome c release in parental BT474 cells
mitochondrial cytochrome c release ([8]; rBT474 cells): not rBT474 cells
growth of BT474-derived tumors [9]: significantly suppressed
Mcl-1 ubiquitylation ([10]; SKBR3 cells): enhanced
Mcl-1 ubiquitylation ([10]; rSKBR3 cells): diminished
CAS mRNA levels [11]: did not cause a reduction

Source: US9937178B2, “Methods of identifying and using MDM2 inhibitors” (DUKE UNIVERSITY, priority 2011, dated 2018)
